Measured values reported in patent publication US9315438B2, “Optically pure benzyl-4-chlorophenyl-C-glucoside derivative” (XUANZHU PHARMA CO., LTD., priority 2014, dated 2016).

Key:
[1] = target: human SGLT-2 (Homo sapiens (Human), UniProt P31639); assay: In-vitro [14C]-AMG uptake inhibition assay in CHO cells stably expressing human SGLT-2; format: cell-based; settings: for Selectivity: SGLT-1 IC50 / SGLT-2 IC50
Protocol: In the in-vitro assay for the pharmacological activities of the present compounds, the human SGLT-2 and SGLT-1 sequences were transfected to Chinese hamster ovary cells to express stably. By measuring inhibition of the sodium dependent adsorption of [^14C]-labeled […]-D-glucopyranoside (AMG) into the cells, the half-inhibition concentration IC50 was determined.
Buffer A (KRH—Na^+): 120 mM NaCl, 4.7 mM KCl, 1.2 mM MgCl2, 2.2 mM CaCl2, 10 mM HEPES (PH 7.4 with 1 mM Tris).
Buffer A− (KRH—NMG): 120 mM NMG, 4.7 mM KCl, 1.2 mM MgCl2, 2.2 mM CaCl2, 10 mM HEPES (PH 7.4 with 1 mM Tris).
Buffer D: 120 mM NaCl, 4.7 mM KCl, 1.2 mM MgCl2, 2.2 mM CaCl2, 10 mM HEPES, 0.5 mM phlorizin (PH 7.4 with 1 mM Tris).
(§1) Assay method: Human SGLT-2 and SGLT-1 sequences were stably expressed in the CHO cells. The cell culture was conducted in a 96-well plate for 12 hr. The plate was washed with KRH—Na+(Buffer A) or KRH-NMG (Buffer A−) buffering solution for three times, 2004/well. Then the plate was added with a buffering solution containing Buffer A or Buffer A− plus [^14C]-AMG (10 μCi/mL), 100 μL/well. The cell culture was conducted at 37° C. for 1 hr. Then, 100 μL of an ice pre-cooled buffering solution (Buffer D) was added to terminate the assay. The plate was washed for five times. Then an ice pre-cooled lytic buffering solution (100 mM NaOH solution) was added, 20 μL/well, and the centrifugation at 600 rpm was conducted for 5 mins. Then Microscint 40 solution was added, 80 μl/well, and the centrifugation at 600 rpm was conducted for 5 mins. Finally, the radioactivity of [^14C]-AMG was detected with MicroBeta Trilux (purchased from PerkinElmer Co. Ltd.) according to the scintillation counting method, and the half-inhibition concentration IC50 was calculated.

[2] = target: human SGLT-1 (Homo sapiens (Human), UniProt P13866); assay: In-vitro [14C]-AMG uptake inhibition assay in CHO cells stably expressing human SGLT-1; format: cell-based; settings: human SGLT-1 in CHO cells
Protocol: as §1, with “In the in-vitro assay for the pharmacological activities of the present compounds, the human SGLT-2 and SGLT-1 sequences were transfected to Chinese hamster ovary cells to express stably. By measuring inhibition of the sodium dependent adsorption of [^14C]-labeled […]-D-glucopyranoside (AMG) into the cells, the half-inhibition concentration IC50 was determined. Buffer A (KRH—Na^+): 120 mM NaCl, 4.7 mM KCl, 1.2 mM MgCl2, 2.2 mM CaCl2, 10 mM HEPES (PH 7.4 with 1 mM Tris). Buffer A− (KRH—NMG): 120 mM NMG, 4.7 mM KCl, 1.2 mM MgCl2, 2.2 mM CaCl2, 10 mM HEPES (PH 7.4 with 1 mM Tris). Buffer D: 120 mM NaCl, 4.7 mM KCl, 1.2 mM MgCl2, 2.2 mM CaCl2, 10 mM HEPES, 0.5 mM phlorizin (PH 7.4 with 1 mM Tris). Assay” for “Assay”

[3] = Rat in-vivo pharmacokinetic assay (PO); settings: male SD rats, PO 10 mg/kg, plasma
Protocol: Assay animals: 6-8 weeks aged male SD rats (purchased from Vital River Laboratories), 3 rats per compound, weighing 200-240 g.
Solvent: 0.5% MC (methyl cellulose) solution+0.1% SDS (sodium dodecyl sulfate).
Intragastric administration (PO): See Table 2
Blood collection: each of 200 μL whole blood were collected at 0.17 hr, 0.5 hr, 1 hr, 2 hr, 4 hr, 6 hr, 8 hr, 24 hr, 30 hr, 48 hr, 54 hr and 72 hr. The collected blood samples were centrifuged at 4° C. at 8000 rpm in a low temperature high-speed centrifuge (5415R, Eppendorf) for 6 mins to separate the blood plasma. The separated plasma was preserved at −80° C. in a refrigerator.
20 μL of the plasma was carefully taken out, to which was added 600 µL of an internal standard MTBE (methyl tert-butyl ether) solution (containing internal standard dapagliflozin 25 ng/ml). The plasma was subjected to a vortex at 1500 rpm for 10 mins, and then centrifuged at 12000 rpm for 5 mins. 4004 of the supernatant was taken and blow-dried with nitrogen gas. The dried substance was redissolved with 2004 of a redissolving solution (acetonitrile:water=7:3). The solution was subjected to a vortex for 10 mins, and analyzed with LC-MS/MS (API4000, Applied Biosystems).

Sequence of human SGLT-2 (P31639 whole entry): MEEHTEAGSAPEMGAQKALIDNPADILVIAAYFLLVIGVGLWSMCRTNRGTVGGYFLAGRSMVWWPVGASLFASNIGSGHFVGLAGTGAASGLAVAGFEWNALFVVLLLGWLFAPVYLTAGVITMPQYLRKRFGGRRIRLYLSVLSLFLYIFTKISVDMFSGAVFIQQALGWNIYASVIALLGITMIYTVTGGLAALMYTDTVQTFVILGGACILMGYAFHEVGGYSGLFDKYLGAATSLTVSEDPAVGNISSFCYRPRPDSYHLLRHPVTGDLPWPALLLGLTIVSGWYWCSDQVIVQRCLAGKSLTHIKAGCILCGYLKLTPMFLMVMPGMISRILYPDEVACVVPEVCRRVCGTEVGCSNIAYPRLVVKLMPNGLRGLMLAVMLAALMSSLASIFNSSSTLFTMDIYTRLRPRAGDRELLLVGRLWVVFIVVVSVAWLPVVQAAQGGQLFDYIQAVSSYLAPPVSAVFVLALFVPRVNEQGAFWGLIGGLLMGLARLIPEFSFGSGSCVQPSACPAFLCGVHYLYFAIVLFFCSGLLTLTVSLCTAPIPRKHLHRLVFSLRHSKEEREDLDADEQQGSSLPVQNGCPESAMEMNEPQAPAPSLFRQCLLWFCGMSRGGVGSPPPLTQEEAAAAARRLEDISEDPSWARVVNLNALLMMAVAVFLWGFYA
Sequence of human SGLT-1 (P13866 whole entry): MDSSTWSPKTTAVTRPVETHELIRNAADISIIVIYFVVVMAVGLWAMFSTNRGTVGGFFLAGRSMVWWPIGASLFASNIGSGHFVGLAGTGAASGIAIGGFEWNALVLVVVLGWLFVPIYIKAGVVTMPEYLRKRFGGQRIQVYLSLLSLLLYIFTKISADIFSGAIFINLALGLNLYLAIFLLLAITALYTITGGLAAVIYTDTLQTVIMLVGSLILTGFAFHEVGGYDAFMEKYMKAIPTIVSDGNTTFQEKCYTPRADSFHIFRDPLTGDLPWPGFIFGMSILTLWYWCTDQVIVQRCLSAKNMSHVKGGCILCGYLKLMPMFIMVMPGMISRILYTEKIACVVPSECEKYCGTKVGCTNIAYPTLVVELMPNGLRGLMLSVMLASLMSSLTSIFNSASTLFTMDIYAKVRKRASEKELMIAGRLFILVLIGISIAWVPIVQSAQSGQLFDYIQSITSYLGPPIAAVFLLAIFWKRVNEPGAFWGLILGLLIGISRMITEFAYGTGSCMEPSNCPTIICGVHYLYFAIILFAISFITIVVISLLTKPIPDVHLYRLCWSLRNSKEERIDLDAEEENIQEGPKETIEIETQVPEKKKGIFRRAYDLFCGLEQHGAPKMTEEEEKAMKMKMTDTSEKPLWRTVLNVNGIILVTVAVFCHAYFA

SMILES | Selectivity [1] | IC50 [2] | IC50 ([1]; human SGLT-2 in CHO cells, [14C]-AMG uptake) | AUC(0-inf) [3] | AUC(0-t) [3] | Cmax [3] | Tmax [3] | half-life [3]
OC[C@H]1O[C@@H](c2ccc(Cl)c(Cc3ccc(O[C@@H]4C[C@@H]5C[C@@H]5C4)cc3)c2)[C@H](O)[C@@H](O)[C@@H]1O [Compound represented by formula (III), (2S,3R,4R,5S,6R)-2-(3-(4-(((1R,3r,5S)-bicyclo[3.1.0]hexan-3-yl)oxy)benzyl)-4-chlorophenyl)-6-(hydroxymethyl)tetrahydro-2H-pyran-3,4,5-triol] | 392.77 | 3.08 µM | – | – | – | – | – | –
OC[C@H]1O[C@H](c2ccc(Cl)c(Cc3ccc(O[C@H]4C[C@@H]5C[C@@H]5C4)cc3)c2)[C@H](O)[C@@H](O)[C@@H]1O [Compound represented by formula (IV), (2R,3R,4R,5S,6R)-2-(3-(4-(((1R,3s,5S)-bicyclo[3.1.0]hexan-3-yl)oxy)benzyl)-4-chlorophenyl)-6-(hydroxymethyl)tetrahydro-2H-pyran-3,4,5-triol] | 100.34 | 111 µM | – | – | – | – | – | –
OC[C@H]1O[C@@H](c2ccc(Cl)c(Cc3ccc(O[C@H]4C[C@@H]5C[C@@H]5C4)cc3)c2)[C@H](O)[C@@H](O)[C@@H]1O [Compound represented by formula (II), (2S,3R,4R,5S,6R)-2-(3-(4-(((1R,3s,5S)-bicyclo[3.1.0]hexan-3-yl)oxy)benzyl)-4-chlorophenyl)-6-(hydroxymethyl)tetrahydro-2H-pyran-3,4,5-triol] | – | 17.2 µM | 0.0025 µM | 92100 ng·h/mL | 92100 ng·h/mL | 6380 ng/mL | 1 h | 8.98 h
OC[C@H]1O[C@H](c2ccc(Cl)c(Cc3ccc(O[C@@H]4C[C@@H]5C[C@@H]5C4)cc3)c2)[C@H](O)[C@@H](O)[C@@H]1O [Compound represented by formula (V), (2R,3R,4R,5S,6R)-2-(3-(4-(((1R,3r,5S)-bicyclo[3.1.0]hexan-3-yl)oxy)benzyl)-4-chlorophenyl)-6-(hydroxymethyl)tetrahydro-2H-pyran-3,4,5-triol] | 267.77 | 75.5 µM | – | – | – | – | – | –
